Experimental data published in publication PMC8268887, “Peptide/β-Peptoid Hybrids with Ultrashort PEG-Like Moieties: Effects on Hydrophobicity, Antibacterial Activity and Hemolytic Properties” (International Journal of Molecular Sciences, 2021).
≈ marks a conversion by molar mass, not a printed value.

Assays:
S. aureus ATCC 29213 = assay type: cell-based, Staphylococcus aureus; settings: ATCC 29213, 20 h
Procedure: (§1) MIC values of the peptidomimetics were evaluated by using the modified Hancock lab protocol in non-binding polystyrene microtiter plates. Bacterial suspensions of ~5 × 10^5 CFU/mL in Mueller-Hinton broth (Difco, Sparks, MD, USA) were prepared with Mg^2+ and Ca^2+ concentrations of 4 mg/L each. The compounds were dissolved in H2O and diluted in 0.01% acetic acid, 0.2% BSA (final concentration). Aliquots (11 µL) of test compounds were then transferred to wells containing bacterial suspensions (100 µL). Low-binding sterile tubes and tips (Axygen, Union City, CA, USA) were used for preparation and transfer of the solutions of the compounds. Following incubation for 20 h of the covered plates at 35 °C (±2 °C) with circular shaking at 180 rpm, the MICs were read.

E. coli ATCC 25922 = assay type: cell-based, Escherichia coli; settings: ATCC 25922, 20 h
Procedure: as §1

E. coli NMI 3898/15 = assay type: cell-based, Escherichia coli; settings: NMI 3898/15, 20 h
Procedure: as §1

E. coli NMI 3371/16 = assay type: cell-based, Escherichia coli; settings: NMI 3371/16, 20 h
Procedure: as §1

[1] = Hydrophobicity by retention in analytical RP-HPLC (% MeCN at peak elution); assay type: physicochemical; settings: for % MeCN at Elution, Aeris Peptide: Phenomenex Aeris Peptide XB-C18 column; for % MeCN at Elution, Aeris Peptide / % MeCN at Elution, Luna Omega / % MeCN at Elution, Supelco Discovery: gradient 0→60% B during 15 min; for % MeCN at Elution, Luna: Phenomenex Luna C18(2) column, RP-HPLC gradient 0→60% B during 15 min, relative hydrophobicity; for % MeCN at Elution, Luna Omega: Phenomenex Luna Omega Polar C18 column; for % MeCN at Elution, Supelco Discovery: Supelco Discovery BIO Wide pore C18 column
Procedure: For each peptide/β-peptoid hybrid oligomer, the retention time in RP-HPLC was measured on four different columns (details shown in Table 2): Phenomenex Luna C18(2) column (recommended for hydrophobic compounds [49]), Phenomenex Luna Omega Polar C18 column (recommended for both very polar and non-polar compounds [50]) as well as Phenomenex Aeris Peptide XB-C18 [51] and Sigma-Aldrich Supelco Discovery BIO Wide pore C18 [52] columns, which both are recommended for analysis of peptides. The retention times of the compounds on each column were used to calculate the acetonitrile concentration at peak elution (denoted merely as % MeCN; Table 1). As expected, the % MeCN for each compound varied somewhat between the four columns.
Starting materials and solvents were acquired from commercial suppliers (Iris Biotech, Markredwitz, Germany; Fluorochem, Hadfield, UK; and Merck, Darmstadt, Germany) and used without further purification. Water used for analytical and preparative high-performance liquid chromatography (HPLC) was filtered through a 0.22-μm capsule filter using an Evoqua LaboStar Pro TWF UV system. Purity and retention time of each peptidomimetic were determined by analytical HPLC by using a Phenomenex Luna Omega Polar C18 column (150 × 4.6 mm; particle size: 3 μm; pore size: 100 Å) on a Shimadzu Prominence and Shimadzu Nexera system using an aqueous acetonitrile (MeCN, VWR, Søborg, Denmark) gradient with 0.1% trifluoroacetic acid (TFA, Iris Biotech, Markredwitz, Germany) added (eluent A: 5:95 MeCN–H2O + 0.1% TFA, eluent B: 95:5 MeCN–H2O + 0.1% TFA); a flow rate of 0.8 mL/min was used. For elution of peptidomimetics, a linear gradient of 0% to 60% B during 15 min was used with UV detection at λ = 220 nm. […] Retention time of each peptidomimetic was also determined by using a Phenomenex Luna C18(2) column (150 × 4.6 mm; particle size: 3 μm; pore size: 100 Å), a Phenomenex Aeris Peptide XB-C18 column (150 × 4.6 mm; particle size: 3.6 μm; pore size: 100 Å), and a Sigma-Aldrich Supelco Discovery BIO Wide pore C18 column (150 × 4.6 mm, particle size: 3 µm; pore size: 300 Å). For each peptidomimetic, the percentage of MeCN at peak elution was calculated from the retention time by using the following formula:(1) %MeCN =0.95 (0.6Rt/15 min)+0.05 (1−0.6Rt/15 min)

P. aeruginosa PAO1 = assay type: cell-based, Pseudomonas aeruginosa; settings: PAO1, 20 h
Procedure: as §1

[2] = system: P. aeruginosa NMI 7197/19; assay type: cell-based, Pseudomonas aeruginosa; settings: NMI 7197/19, 20 h
Procedure: as §1

A. baumannii ATCC 19606 = assay type: cell-based, Acinetobacter baumannii; settings: ATCC 19606, 20 h
Procedure: as §1

A. baumannii NMI 3658/17 = assay type: cell-based, Acinetobacter baumannii; settings: NMI 3658/17, 20 h
Procedure: as §1

E. faecalis ATCC 29212 = assay type: cell-based; settings: ATCC 29212, 20 h
Procedure: as §1

K. pneumoniae ATCC 13883 = assay type: cell-based; settings: ATCC 13883, 20 h
Procedure: as §1

[3] = Antiproliferative activity on HepG2 cell line (MTT assay); assay type: cell-based; settings: HepG2 cells; at 1280 µg/mL, value in parenthesis; read-out: HepG2 cell viability at highest concentration tested
Procedure: (§2) Effect of compounds on mammalian cell viability was estimated on the HepG2 cell line ATCC HB-8065. In brief, HepG2 cells were seeded into flat-bottomed 96-well plates at a concentration of 5000 cells per well. Subsequently, the cells were incubated for 24 h in a humidified incubator (5% CO2, 37 °C). Then, the medium was removed, and the cells were incubated for 48 h in a humidified incubator (5% CO2, 37 °C) with peptidomimetics in serial dilutions. Then, an 3-(4,5-dimethylthiazol-2-yl)-2,5-diphenyltetrazolium bromide (MTT) assay was performed as previously described. In brief, after incubation with the test compounds, the culture medium was removed, and then fresh medium with 0.2 mg/mL MTT was added into each well of the plate. The cells were then incubated (3 h, 37 °C, 5% CO2), followed by removal of the medium with MTT and addition of 200 μL dimethyl sulfoxide at once to each sample. Absorbance of MTT was measured using the spectrophotometer TECAN Infinite M1000 at 540 nm. The relative viability was calculated by using the formula: ODtreated cells × 100/ODcontrol cells. The IC50 values are calculated by using the program Graph Pad Prism® 5.0. For all compounds, the test range was 10–1280 μg/mL.

[4] = system: HepG2 cell line ATCC HB-8065; assay: as above; assay type: cell-based; settings: inhibition of growth of HepG2 cells, 48 h, MTT; highest concentration tested 1280 µg/mL
Procedure: as §2

Compound	MIC, SA (S. aureus ATCC 29213) [µg/mL]	MIC, EC (E. coli ATCC 25922) [µg/mL]	MIC, E. coli NMI 3898/15 (E. coli NMI 3898/15) [µg/mL]	MIC, E. coli NMI 3371/16 (E. coli NMI 3371/16) [µg/mL]	% MeCN at Elution, Aeris Peptide [1] [% MeCN]	% MeCN at Elution, Luna [1] [% MeCN]	% MeCN at Elution, Luna Omega [1] [% MeCN]	% MeCN at Elution, Supelco Discovery [1] [% MeCN]	MIC, PA (P. aeruginosa PAO1) [µg/mL]	MIC, P. aeruginosa NMI 7197/19 [2] [µg/mL]	MIC, AB (A. baumannii ATCC 19606) [µg/mL]	MIC, A. baumannii NMI 3658/17 (A. baumannii NMI 3658/17) [µg/mL]	MIC, EF (E. faecalis ATCC 29212) [µg/mL]	MIC, KP (K. pneumoniae ATCC 13883) [µg/mL]	HepG2 IC50 [4] [µg/mL]	MIC against A. baumannii (A. baumannii ATCC 19606) [µM]	viability at 48 h [3] [%]
NCCCC[C@H](NC(=O)CCN(Cc1ccc(F)cc1)C(=O)[C@H](CCCCN)NC(=O)CCN(Cc1ccc(F)cc1)C(=O)[C@H](CCCCN)NC(=O)CCOCCOCCOCCOCCN)C(=O)N(CCC(=O)NCCOCCOCCOCCOCCC(=O)N[C@@H](CCCCN)C(=O)N(CCC(=O)N[C@@H](CCCCN)C(=O)N(CCC(=O)N[C@@H](CCCCN)C(=O)N(CCC(=O)NCCOCCOCCOCCOCCC(N)=O)Cc1ccc(F)cc1)Cc1ccc(F)cc1)Cc1ccc(F)cc1)Cc1ccc(F)cc1 [Compound 14, H-sPEG4-[X]3-sPEG4-[X]3-sPEG4-NH2]	>64	16 (≈ 6.15 µM)	32 (≈ 12.3 µM)	16 (≈ 6.15 µM)	40.4	42.4	43.5	42.5	>64	>64	16 (≈ 6.15 µM)	32 (≈ 12.3 µM)	>64	>64	450	–	44
NCCCC[C@H](NC(=O)CCN(Cc1ccc(F)cc1)C(=O)[C@H](CCCCN)NC(=O)CCN(Cc1ccc(F)cc1)C(=O)[C@H](CCCCN)NC(=O)CCOCCOCCOCCOCCOCCOCCNC(=O)CCN(Cc1ccc(F)cc1)C(=O)[C@H](CCCCN)NC(=O)CCN(Cc1ccc(F)cc1)C(=O)[C@H](CCCCN)NC(=O)CCN(Cc1ccc(F)cc1)C(=O)[C@@H](N)CCCCN)C(=O)N(CCC(N)=O)Cc1ccc(F)cc1 [Compound 10, H-[X]3-sPEG6-[X]3-NH2]	>64	4 to 8	8 to 32	4 to 16	40.3	42.3	42.8	42.5	16 (≈ 7.28 µM)	>64	4 (≈ 1.82 µM)	4 (≈ 1.82 µM)	>64	64 (≈ 29.1 µM)	800	1.3 (≈ 2.86 µg/mL)	27
NCCCC[C@H](NC(=O)CCN(Cc1ccc(F)cc1)C(=O)[C@H](CCCCN)NC(=O)CCN(Cc1ccc(F)cc1)C(=O)[C@H](CCCCN)NC(=O)COCCOCCNC(=O)CCN(Cc1ccc(F)cc1)C(=O)[C@H](CCCCN)NC(=O)CCN(Cc1ccc(F)cc1)C(=O)[C@H](CCCCN)NC(=O)CCN(Cc1ccc(F)cc1)C(=O)[C@@H](N)CCCCN)C(=O)N(CCC(N)=O)Cc1ccc(F)cc1 [Compound 7, H-[X]3-sPEG2-[X]3-NH2]	–	4 (≈ 1.99 µM)	8 (≈ 3.99 µM)	4 (≈ 1.99 µM)	39.4	41.4	41.8	41.6	16 to 32	>64	4 (≈ 1.99 µM)	4 (≈ 1.99 µM)	–	>64	619	–	10

Further lines, with some results ahead:

MIC, SA (S. aureus ATCC 29213) [µg/mL]	MIC, EC (E. coli ATCC 25922) [µg/mL]	MIC, E. coli NMI 3898/15 (E. coli NMI 3898/15) [µg/mL]	MIC, E. coli NMI 3371/16 (E. coli NMI 3371/16) [µg/mL]	% MeCN at Elution, Aeris Peptide [1] [% MeCN]	% MeCN at Elution, Luna [1] [% MeCN]	% MeCN at Elution, Luna Omega [1] [% MeCN]	% MeCN at Elution, Supelco Discovery [1] [% MeCN]	MIC, PA (P. aeruginosa PAO1) [µg/mL]	MIC, P. aeruginosa NMI 7197/19 [2] [µg/mL]	MIC, AB (A. baumannii ATCC 19606) [µg/mL]	MIC, A. baumannii NMI 3658/17 (A. baumannii NMI 3658/17) [µg/mL]	MIC, EF (E. faecalis ATCC 29212) [µg/mL]	MIC, KP (K. pneumoniae ATCC 13883) [µg/mL]	HepG2 IC50 [4] [µg/mL]	MIC against A. baumannii (A. baumannii ATCC 19606) [µM]	Compound	viability at 48 h [3] [%]
>64	8 (≈ 3.7 µM)	16 (≈ 7.39 µM)	8 (≈ 3.7 µM)	38.7	40.8	41.4	40.8	32 (≈ 14.8 µM)	>64	4 to 8	8 (≈ 3.7 µM)	>64	>64	–	–	NCCCC[C@H](NC(=O)CCN(Cc1ccc(F)cc1)C(=O)[C@H](CCCCN)NC(=O)CCN(Cc1ccc(F)cc1)C(=O)[C@H](CCCCN)NC(=O)COCCN)C(=O)N(CCC(=O)NCCOCC(=O)N[C@@H](CCCCN)C(=O)N(CCC(=O)N[C@@H](CCCCN)C(=O)N(CCC(=O)N[C@@H](CCCCN)C(=O)N(CCC(=O)NCCOCC(N)=O)Cc1ccc(F)cc1)Cc1ccc(F)cc1)Cc1ccc(F)cc1)Cc1ccc(F)cc1 [Compound 11, H-sPEG1-[X]3-sPEG1-[X]3-sPEG1-NH2]	–
>64	8 to 16	16 (≈ 6.59 µM)	8 (≈ 3.29 µM)	39.9	41.9	42.8	42.1	>64	>64	8 to 16	16 (≈ 6.59 µM)	>64	>64	–	–	NCCCC[C@H](NC(=O)CCN(Cc1ccc(F)cc1)C(=O)[C@H](CCCCN)NC(=O)CCN(Cc1ccc(F)cc1)C(=O)[C@H](CCCCN)NC(=O)COCCOCCOCCN)C(=O)N(CCC(=O)NCCOCCOCCOCC(=O)N[C@@H](CCCCN)C(=O)N(CCC(=O)N[C@@H](CCCCN)C(=O)N(CCC(=O)N[C@@H](CCCCN)C(=O)N(CCC(=O)NCCOCCOCCOCC(N)=O)Cc1ccc(F)cc1)Cc1ccc(F)cc1)Cc1ccc(F)cc1)Cc1ccc(F)cc1 [Compound 13, H-sPEG3-[X]3-sPEG3-[X]3-sPEG3-NH2]	–
